A short description of the series: Bidirectional permeability assay (Caco-2 cells). It is filed as in vitro ADME. The settings on record: human, pH 7.4, Caco-2, absorptive direction (A2B). Here is the method:
Bidirectional Permeability Assay (Caco-2 Cells)
Caco-2 cells (Evotec) were seeded at a density of 70,000 cells/well in Millicell® 24-well cell culture insert plates and maintained in an incubator (37° C., 5% CO2, 95% RH) for 21 days with media change on alternate days.
Stock solutions (10 mM) of the test compounds, atenolol (low permeability marker), propranolol (high permeability marker) and digoxin (substrate for P-gp transport pathway) were prepared in dimethylsulfoxide (DMSO). An intermediate stock solution (1 mM) was prepared by diluting 10 μL of 10 mM master stock solution with 90 μL of neat DMSO. A working stock solution (10 μM) was prepared by diluting 50 μL of 1 mM with 4950 μL of FaSSIF buffer. […]
On the day of assay, Caco-2 monolayers were washed twice with transport buffer (HBSS, pH 7.4) and pre-incubated for 30 min (37° C., 5% CO2, 95% RH) in an incubator. The electrical resistance of the monolayers was measured with a Millicell®-ERS system. […]
Samples were vortexed and centrifuged at 4000 rpm for 10 minutes. […] The concentration of compounds in the samples was analyzed by liquid chromatography tandem mass spectrometry (LC-MS/MS) method using discovery grade bio-analytical method, as applicable.
The mean apparent permeability (Papp, ×10^−6 cm/sec) of the test compounds, atenolol, propranolol and digoxin were calculated as follows: […]

Molecules are shown by their SMILES.

On to `CCCCC1(C)CN(c2ccc(F)cc2)c2cc(SC)c(OCC(O)C(=O)O)cc2S(=O)(=O)C1` (single isomer, unassigned) [1, diastereomer 1], for which the apparent permeability from apical to basolateral (Papp A→B) at 120 min, 10 µM stood at 2.2 ×10⁻⁶ cm/s.
